In ChEMBL document CHEMBL1125859, “Synthesis and evaluation of antiinflammatory activities of a series of corticosteroid 17 alpha-esters containing a functional group” (J Med Chem, 1991):

Tests used:
Rattus norvegicus [1] = organism: Rattus norvegicus; assay: The thymolytic activity was measured relative to clobetasol propionate (CP=1) in rat granuloma pouch assay system; assay type: functional
[2] = It is the ratio of topical(edema inhibition) to systemic (thymolysis) activities.; assay type: functional
Mus musculus = organism: Mus musculus; assay: Anti-inflammatory activity in mouse croton oil ear assay relative to clobetasol propionate; assay type: functional
Glucocorticoid receptor = target: T1, Glucocorticoid receptor (Rattus norvegicus, UniProt P06536); assay: Competitive displacement of [3H]dexamethasone from glucocorticoid receptor of rat liver cytosol
T1 sequence (P06536 whole entry): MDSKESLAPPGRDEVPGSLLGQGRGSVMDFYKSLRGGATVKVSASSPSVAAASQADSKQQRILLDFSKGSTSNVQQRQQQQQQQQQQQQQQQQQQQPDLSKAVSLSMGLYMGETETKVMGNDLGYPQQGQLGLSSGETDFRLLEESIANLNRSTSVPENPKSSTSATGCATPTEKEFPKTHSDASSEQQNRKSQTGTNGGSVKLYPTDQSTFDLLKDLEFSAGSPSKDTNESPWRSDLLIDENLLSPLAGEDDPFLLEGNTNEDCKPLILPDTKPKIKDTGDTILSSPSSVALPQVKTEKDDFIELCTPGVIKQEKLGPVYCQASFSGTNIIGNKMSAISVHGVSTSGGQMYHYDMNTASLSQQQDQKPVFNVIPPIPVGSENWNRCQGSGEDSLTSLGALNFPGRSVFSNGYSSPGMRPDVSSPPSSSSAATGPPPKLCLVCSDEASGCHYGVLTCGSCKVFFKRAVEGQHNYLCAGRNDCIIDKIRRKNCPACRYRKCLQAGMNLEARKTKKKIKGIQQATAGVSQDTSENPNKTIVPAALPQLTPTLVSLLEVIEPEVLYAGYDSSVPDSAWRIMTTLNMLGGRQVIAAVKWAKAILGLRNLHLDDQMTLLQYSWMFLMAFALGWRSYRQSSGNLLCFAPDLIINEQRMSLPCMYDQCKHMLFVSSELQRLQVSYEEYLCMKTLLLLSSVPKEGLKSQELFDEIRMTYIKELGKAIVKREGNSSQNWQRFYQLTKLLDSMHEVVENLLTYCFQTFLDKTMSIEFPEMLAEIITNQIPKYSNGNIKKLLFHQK

Rattus norvegicus [3] = organism: Rattus norvegicus; assay: The thymolytic activity was measured relative to clobetasol propionate (CP=1) in rat granuloma pouch assay system; granuloma inhibition or thymolytic activity was not detected up to 100 ug/pouch; assay type: functional

Structure (SMILES)	Thymolysis (Rattus norvegicus [1])	Ratio [2]	Fold_activity (Mus musculus)	IC50 (Glucocorticoid receptor)	Thymolysis (Rattus norvegicus [3])
COCCC(=O)O[C@]1(C(=O)CCl)[C@@H](C)CC2C3CCC4=CC(=O)C=CC4(C)[C@@]3(F)[C@@H](O)CC21C (stereo not given in full)	0.05	7.6	0.38	–	–
C[C@H]1CC2C3CCC4=CC(=O)C=CC4(C)[C@@]3(F)[C@@H](O)CC2(C)[C@@]1(OC(=O)CC1CC1)C(=O)CCl (stereo not given in full)	1.1	0.46	0.51	–	–
COC(=O)CCC(=O)O[C@]1(C(=O)CCl)[C@@H](C)CC2C3CCC4=CC(=O)C=CC4(C)[C@@]3(F)[C@@H](O)CC21C (stereo not given in full)	–	> 130	1.3	5.18 nM	< 0.01
C[C@H]1CC2C3CCC4=CC(=O)C=CC4(C)[C@@]3(F)[C@@H](O)CC2(C)[C@@]1(OC(=O)C1CC1)C(=O)CCl (stereo not given in full)	1.3	0.34	0.44	–	–
CSCC(=O)O[C@]1(C(=O)CCl)[C@@H](C)CC2C3CCC4=CC(=O)C=CC4(C)[C@@]3(F)[C@@H](O)CC21C (stereo not given in full)	0.35	1	0.35	–	–
C[C@H]1CC2C3CCC4=CC(=O)C=CC4(C)[C@@]3(F)[C@@H](O)CC2(C)[C@@]1(OC(=O)CCC(=O)OC(C)(C)C)C(=O)CCl (stereo not given in full)	–	–	0.19	10.8 nM	–
CCOC(=O)CCC(=O)O[C@]1(C(=O)CCl)[C@@H](C)CC2C3CCC4=CC(=O)C=CC4(C)[C@@]3(F)[C@@H](O)CC21C (stereo not given in full)	–	–	0.56	–	–
COCC(=O)O[C@]1(C(=O)CCl)[C@@H](C)CC2C3CCC4=CC(=O)C=CC4(C)[C@@]3(F)[C@@H](O)CC21C (stereo not given in full)	–	–	0.11	–	–
CCOC(=O)CCCC(=O)O[C@]1(C(=O)CCl)[C@@H](C)CC2C3CCC4=CC(=O)C=CC4(C)[C@@]3(F)[C@@H](O)CC21C (stereo not given in full)	–	–	0.68	9.68 nM	–
CC(C)OC(=O)CCC(=O)O[C@]1(C(=O)CCl)[C@@H](C)CC2C3CCC4=CC(=O)C=CC4(C)[C@@]3(F)[C@@H](O)CC21C (stereo not given in full)	–	–	0.11	12.1 nM	–
C[C@H]1CC2C3CCC4=CC(=O)C=CC4(C)[C@@]3(F)[C@@H](O)CC2(C)[C@@]1(OC(=O)CCC(=O)O)C(=O)CCl (stereo not given in full)	–	–	<0.01	> 150 nM	–
CC(=O)OCCC(=O)O[C@]1(C(=O)CCl)[C@@H](C)CC2C3CCC4=CC(=O)C=CC4(C)[C@@]3(F)[C@@H](O)CC21C (stereo not given in full)	0.015	18.6	0.28	–	–
C[C@H]1CC2C3CCC4=CC(=O)C=CC4(C)[C@@]3(F)[C@@H](O)CC2(C)[C@@]1(OC(=O)CCCCl)C(=O)CCl (stereo not given in full)	0.12	5.5	0.66	–	–
CCC(=O)O[C@]1(C(=O)CCl)[C@@H](C)C[C@H]2[C@@H]3CCC4=CC(=O)C=C[C@]4(C)[C@@]3(F)[C@@H](O)C[C@@]21C [CLOBETASOL PROPIONATE]	1	1	1	3.17 nM	–
COC(=O)CCCC(=O)O[C@]1(C(=O)CCl)[C@@H](C)CC2C3CCC4=CC(=O)C=CC4(C)[C@@]3(F)[C@@H](O)CC21C (stereo not given in full)	–	–	0.45	–	–
CCC(=O)OCC(=O)[C@@]1(OC(=O)CC)[C@@H](C)C[C@H]2[C@@H]3CCC4=CC(=O)C=C[C@]4(C)[C@@]3(F)[C@@H](O)C[C@@]21C [BETAMETHASONE DIPROPIONATE]	0.03	–	–	–	–
C[C@H]1CC2C3CCC4=CC(=O)C=CC4(C)[C@@]3(F)[C@@H](O)CC2(C)[C@@]1(OC(=O)CCC#N)C(=O)CCl (stereo not given in full)	–	–	0.07	–	–
C[C@H]1CC2C3CCC4=CC(=O)C=CC4(C)[C@@]3(F)[C@@H](O)CC2(C)[C@@]1(OC(=O)CCl)C(=O)CCl (stereo not given in full)	–	–	0.25	–	–
